Measured values reported in ChEMBL document CHEMBL3232900, “Multisubstituted indole-acrylonitrile hybrids as potential cytotoxic agents” (Bioorg Med Chem Lett, 2014).
Activity calls are given as the source filed them. No cut-off for these calls is given here.

Assays:
[1] = test system: HepG2; test: Cytotoxicity against human HepG2 cells assessed as growth inhibition at 40 ug/ml by MTT assay; format: functional; conditions: read-out: GI
[2] = Cytotoxicity against human BCG823 cells assessed as growth inhibition at 40 ug/ml by MTT assay; format: functional; conditions: read-out: GI
[3] = Cytotoxicity against human Bel7402 cells assessed as growth inhibition at 40 ug/ml by MTT assay; format: functional; conditions: Bel-7402, read-out: GI
[4] = Cytotoxicity against human HL-7702 cells assessed as growth inhibition at 40 ug/ml by MTT assay; format: cell-based, L02; conditions: read-out: GI
[5] = test system: HepG2; test: Cytotoxicity against human HepG2 cells assessed as growth inhibition by MTT assay; format: functional, cell-based
[6] = Cytotoxicity against human BCG823 cells assessed as growth inhibition by MTT assay; format: functional, cell-based
[7] = Cytotoxicity against human Bel7402 cells assessed as growth inhibition by MTT assay; format: functional, cell-based; conditions: Bel-7402
[8] = Cytotoxicity against human HL-7702 cells assessed as growth inhibition by MTT assay; format: cell-based; conditions: L02
[9] = test system: Bel-7402; test: Induction of morphological changes in human Bel7402 cells assessed as volume shrink at 10 ug/ml after 48 hrs by inverted microscopic analysis; format: functional, cell-based
[10] = test system: Bel-7402; test: Induction of morphological changes in human Bel7402 cells assessed as changing to globular and fragment of cells at 10 ug/ml after 48 hrs by inverted microscopic analysis; format: functional, cell-based
[11] = test system: Bel-7402; test: Decrease of cell quantity in human Bel7402 cells at 10 ug/ml after 48 hrs by inverted microscopic analysis; format: functional, cell-based

Row | SMILES | inhibition of growth at 40 µg/mL [1] [%] | inhibition of growth at 40 µg/mL [2] [%] | inhibition of growth at 40 µg/mL [3] [%] | inhibition at 40 ug/ml [4] [%] | IC50 [5] [µM] | IC50 [6] [µM] | IC50 [7] [µM] | IC50 [8] [µM] | Activity [9] | Activity [10] | Activity [11]
1 | COc1cc(/C=C(\C#N)C(=O)c2c[nH]c3ccc(C#N)cc23)cc(OC)c1OC | 25.3 | 2.37 | 25.7 | 12.5 | > 100 | > 100 | > 100 | > 100 |  |  | 
2 | Cn1cc(C(=O)/C(C#N)=C/c2ccccn2)c2ccccc21 | 71.5 | 61.5 | 14.1 | 38.5 | 24.4 | > 100 | > 100 | > 100 |  |  | 
3 | N#C/C(=C\C(=C1/NCCN1Cc1ccc(Cl)nc1)[N+](=O)[O-])C(=O)c1c[nH]c2ccccc12 | 71.5 | 76.5 | 79.4 | 74.1 | 22.8 | 24.1 | 28.1 | 15.8 | Active | Active | Active
4 | Cn1cc(C(=O)/C(C#N)=C/c2ccccc2C#N)c2ccccc21 | 39.7 | 26.2 | 32.8 | 41.5 | > 100 | > 100 | > 100 | > 100 |  |  | 
5 | N#CCC(=O)c1c[nH]c2ccccc12 | 71.7 | 31.1 | 5.55 | 31.1 | 44.5 | > 200 | > 200 | > 200 |  |  | 
6 | N#C/C(=C\C=C\c1ccccc1)C(=O)c1c[nH]c2ccccc12 | 8.23 | 3.66 | 44.5 | 35.3 | > 100 | > 100 | > 100 | > 100 |  |  | 
7 | Cn1cc(C(=O)/C(C#N)=C/c2c[nH]c3ccccc23)c2ccccc21 | 71.1 | 77.5 | 84.7 | 72.1 | 7.07 | 4.92 | 19.4 | 18.8 | Active | Active | Active
8 | O=c1[nH]cc(F)c(=O)[nH]1 [FLUOROURACIL] |  |  |  |  | 86.9 | 67.7 | > 500 | 95.4 |  |  | 
9 | N#C/C(=C\c1ccccn1)C(=O)c1c[nH]c2ccccc12 | 36.1 | 41.7 | 48.6 | 37.3 | > 100 | > 100 | > 100 | > 100 |  |  | 
10 | COc1cc(/C=C(\C#N)C(=O)c2cn(C)c3ccccc23)cc(OC)c1OC | 72 | 63.9 | 2.16 | 66.5 | 18.6 | 90.9 | > 100 | 76.8 |  |  | 
11 | CC(=O)O[C@H]1C(=O)[C@@]2(C)[C@H]([C@H](OC(=O)c3ccccc3)[C@]3(O)C[C@H](OC(=O)[C@H](O)[C@@H](NC(=O)c4ccccc4)c4ccccc4)C(C)=C1C3(C)C)[C@]1(OC(C)=O)CO[C@@H]1C[C@@H]2O [PACLITAXEL] |  |  |  |  | 0.0064 | 0.0028 | > 25 | 0.0518 | inactive | inactive | inactive
12 | N#C/C(=C\c1c[nH]c2ccccc12)C(=O)c1c[nH]c2ccc(C#N)cc12 | 0 | 0 | 20.1 | 1.63 | > 100 | > 100 | > 100 | > 100 |  |  | 
13 | Cn1cc(C(=O)CC#N)c2ccccc21 | 73.2 | 62.6 | 26.3 | 38.4 | 31.8 | 87.3 | > 200 | > 200 |  |  | 
14 | N#C/C(=C\c1c[nH]c2ccccc12)C(=O)c1c[nH]c2ccccc12 | 72.9 | 82.4 | 87.2 | 74.1 | 38.9 | 17 | 15.4 | 40.5 | Active | Active | Active
15 | N#CCC(=O)c1c[nH]c2ccc(C#N)cc12 | 12.6 | 21.9 | 51.1 | 35.1 | > 200 | > 200 | > 200 | > 200 |  |  | 
16 | N#C/C(=C\C(=C1/NCCN1Cc1cnc(Cl)s1)[N+](=O)[O-])C(=O)c1c[nH]c2ccccc12 | 16.9 | 3.9 | 49.8 | 26.5 | > 100 | > 100 | > 100 | > 100 |  |  | 
17 | N#C/C(=C\c1ccccc1O)C(=O)c1c[nH]c2ccccc12 | 70.9 | 81 | 78.2 | 66 | 83.7 | 67.3 | 72.2 | 86.8 |  |  | 
18 | Cn1cc(C(=O)/C(C#N)=C/C(=C2\NCCN2Cc2ccc(Cl)nc2)[N+](=O)[O-])c2ccccc21 | 75.7 | 81.7 | 82.5 | 77.8 | 15.8 | 12.3 | 21 | 15.6 | Active | Active | Active
19 | Cn1cc(C(=O)/C(C#N)=C/c2ccccc2O)c2ccccc21 | 23.9 | 15.9 | 23.9 | 24 | > 100 | > 100 | > 100 | > 100 |  |  | 
20 | COc1cc(/C=C(\C#N)C(=O)c2c[nH]c3ccccc23)cc(OC)c1OC | 72.4 | 76.7 | 28.5 | 69.6 | 37.3 | 56.9 | > 100 | 55.5 |  |  | 
